According to ChEMBL document CHEMBL6153137, “Design, Synthesis, and Biological Evaluation of Novel Orally Available Covalent CDK12/13 Dual Inhibitors for the Treatment of Tumors” (J Med Chem, 2025):
Activity calls are given as the source filed them. The rule behind the calls is not given here.

Legend:
[1] = Toxicity against male Sprague-Dawley rat assessed as hypersalivation at 40 mg/kg, po administered once daily via gavage for 28 days; format: organism-based; conditions: in vivo, 672 h, time 28 day
[2] = Toxicity against male Sprague-Dawley rat assessed as effect on phosphorus level in blood at 10 to 40 mg/kg, po administered once daily via gavage for 28 days and measured on day 29; format: organism-based; conditions: in vivo, 696 h, dose 10-40 mg/kg, time 29 day
[3] = Toxicity against male Sprague-Dawley rat assessed as effect on creatinine level in blood at 10 to 40 mg/kg, po administered once daily via gavage for 28 days and measured on day 29; format: organism-based; conditions: in vivo, 696 h, dose 10-40 mg/kg, time 29 day
[4] = biological target: CDK18/Cyclin Y (Homo sapiens) (UniProt Q07002+Q8ND76); experiment: Inhibition of human recombinant N-terminal GST-tagged CDK18/N-terminal GST-tagged Cyclin Y expressed in HEP Sf9 cells using ATP as substrate at 2 uM measured after 60 mins by ADP-Glo reagent based luminescence assay
[5] = Cmax in Sprague-Dawley rat at 50 mg/kg, po measured for 24 hrs by LC-MS/MS analysis; format: ADME, organism-based; conditions: in vivo
[6] = Half life in Sprague-Dawley rat at 15 mg/kg, po measured for 24 hrs by LC-MS/MS analysis; format: ADME, organism-based; conditions: in vivo
HCT-116 [7] = experiment: Antiproliferative activity against human HCT-116 cells assessed as reduction in cell viability incubated for 7 days by CellTiter-Glo reagent based luminescence analysis; format: functional; conditions: HCT-116, 168 h
[8] = Volume of distribution at steady state in CD-1 mouse at 1 mg/kg, iv measured for 24 hrs by LC-MS/MS analysis; format: ADME, organism-based; conditions: in vivo, read-out: Vdss
[9] = Toxicity against male Sprague-Dawley rat assessed as soft feces at 40 mg/kg, po administered once daily via gavage for 28 days; format: organism-based; conditions: in vivo, 672 h, time 28 day
SW1417 = experiment: Antiproliferative activity against human SW1417 cells assessed as reduction in cell viability incubated for 7 days by CellTiter-Glo reagent based luminescence analysis; format: functional; conditions: SW1417, 168 h
CDK9/cyclin T1 = CDK9/cyclin T1 (Homo sapiens, UniProt P50750); experiment: Inhibition of human recombinant N-terminal GST-tagged CDK9/N-terminal GST-tagged and C-terminal 8X His-tagged Cyclin T1 expressed in HEP Sf9 cells using ATP as substrate measured after 60 mins by ADP-Glo reagent based luminescence assay
CDK9/cyclin T1, sequence (O60563 whole entry): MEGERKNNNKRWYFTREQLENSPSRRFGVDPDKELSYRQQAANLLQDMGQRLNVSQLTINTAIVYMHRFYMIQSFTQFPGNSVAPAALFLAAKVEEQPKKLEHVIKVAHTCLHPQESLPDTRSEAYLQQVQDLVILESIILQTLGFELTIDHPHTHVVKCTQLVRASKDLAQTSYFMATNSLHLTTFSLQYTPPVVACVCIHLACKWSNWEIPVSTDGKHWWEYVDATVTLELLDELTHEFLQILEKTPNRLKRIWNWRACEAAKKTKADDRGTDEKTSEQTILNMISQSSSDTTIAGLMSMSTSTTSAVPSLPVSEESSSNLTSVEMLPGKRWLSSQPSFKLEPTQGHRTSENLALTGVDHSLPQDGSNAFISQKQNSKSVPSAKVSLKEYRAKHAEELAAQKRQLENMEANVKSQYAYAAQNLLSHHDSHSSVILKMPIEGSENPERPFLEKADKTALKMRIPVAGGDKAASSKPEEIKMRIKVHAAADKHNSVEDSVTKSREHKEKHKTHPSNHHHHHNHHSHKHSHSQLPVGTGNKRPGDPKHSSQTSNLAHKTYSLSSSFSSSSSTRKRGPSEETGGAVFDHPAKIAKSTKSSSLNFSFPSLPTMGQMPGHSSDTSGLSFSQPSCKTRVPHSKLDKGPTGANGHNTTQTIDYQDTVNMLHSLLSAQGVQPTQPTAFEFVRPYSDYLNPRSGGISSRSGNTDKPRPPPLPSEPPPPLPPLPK
CDK9/cyclin T1, sequence (P50750 whole entry): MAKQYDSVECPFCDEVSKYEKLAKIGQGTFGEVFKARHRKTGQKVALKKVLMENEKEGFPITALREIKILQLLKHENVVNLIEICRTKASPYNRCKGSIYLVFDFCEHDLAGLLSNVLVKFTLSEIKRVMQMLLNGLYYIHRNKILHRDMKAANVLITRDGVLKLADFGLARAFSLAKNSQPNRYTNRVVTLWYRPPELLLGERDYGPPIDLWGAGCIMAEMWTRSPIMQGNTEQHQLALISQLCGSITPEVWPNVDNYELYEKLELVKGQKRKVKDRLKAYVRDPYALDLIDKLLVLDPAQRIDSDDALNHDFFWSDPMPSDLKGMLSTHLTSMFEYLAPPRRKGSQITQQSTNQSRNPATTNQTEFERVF

[10] = Toxicity against male Sprague-Dawley rat assessed as effect on blood urea nitrogen level at 10 to 40 mg/kg, po administered once daily via gavage for 28 days and measured on day 29; format: organism-based; conditions: in vivo, 696 h, dose 10-40 mg/kg, time 29 day
[11] = Cmax in Balb/c mouse xenografted with human MV4-11 cells at 30 mg/kg, po administered once daily via gavage; format: ADME, organism-based; conditions: in vivo
[12] = Clearance in Sprague-Dawley rat at 1 mg/kg, iv measured for 24 hrs by LC-MS/MS analysis; format: ADME, organism-based; conditions: in vivo
[13] = Volume of distribution at steady state in Sprague-Dawley rat at 1 mg/kg, iv measured for 24 hrs by LC-MS/MS analysis; format: ADME, organism-based; conditions: in vivo, read-out: Vdss
[14] = Toxicity against Sprague-Dawley rat assessed as abnormalities at 1 mg/kg, iv measured for 24 hrs; format: organism-based; conditions: in vivo
[15] = biological target: CDK12/Cyclin K (Homo sapiens) (UniProt O75909+Q9NYV4); experiment: Irreversible covalent binding affinity to CDK12/CyclinK (unknown origin) at Cys1039 residue assessed as 1:1 complex formation at 5 uM measured after 3 hrs by peptide mapping based mass spectrometric analysis; format: protein-complex assay
CDK12/Cyclin K (Homo sapiens), sequence (O75909 whole entry, looked up): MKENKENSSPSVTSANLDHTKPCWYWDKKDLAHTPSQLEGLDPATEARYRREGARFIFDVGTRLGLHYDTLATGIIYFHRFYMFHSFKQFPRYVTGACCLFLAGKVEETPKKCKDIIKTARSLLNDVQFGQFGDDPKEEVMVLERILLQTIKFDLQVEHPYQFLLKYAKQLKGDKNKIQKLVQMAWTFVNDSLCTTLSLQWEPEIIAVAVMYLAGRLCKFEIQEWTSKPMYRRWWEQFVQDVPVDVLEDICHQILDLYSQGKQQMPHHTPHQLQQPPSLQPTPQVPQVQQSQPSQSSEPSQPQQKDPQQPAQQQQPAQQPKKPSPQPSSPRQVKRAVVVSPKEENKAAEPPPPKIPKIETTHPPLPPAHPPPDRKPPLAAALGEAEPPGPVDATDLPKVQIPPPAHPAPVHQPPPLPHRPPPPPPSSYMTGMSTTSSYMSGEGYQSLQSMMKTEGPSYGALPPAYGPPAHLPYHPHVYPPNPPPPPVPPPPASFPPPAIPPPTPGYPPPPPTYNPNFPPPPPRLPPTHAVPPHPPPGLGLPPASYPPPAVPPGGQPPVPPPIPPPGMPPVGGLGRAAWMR
CDK12/Cyclin K (Homo sapiens), sequence (Q9NYV4 whole entry, looked up): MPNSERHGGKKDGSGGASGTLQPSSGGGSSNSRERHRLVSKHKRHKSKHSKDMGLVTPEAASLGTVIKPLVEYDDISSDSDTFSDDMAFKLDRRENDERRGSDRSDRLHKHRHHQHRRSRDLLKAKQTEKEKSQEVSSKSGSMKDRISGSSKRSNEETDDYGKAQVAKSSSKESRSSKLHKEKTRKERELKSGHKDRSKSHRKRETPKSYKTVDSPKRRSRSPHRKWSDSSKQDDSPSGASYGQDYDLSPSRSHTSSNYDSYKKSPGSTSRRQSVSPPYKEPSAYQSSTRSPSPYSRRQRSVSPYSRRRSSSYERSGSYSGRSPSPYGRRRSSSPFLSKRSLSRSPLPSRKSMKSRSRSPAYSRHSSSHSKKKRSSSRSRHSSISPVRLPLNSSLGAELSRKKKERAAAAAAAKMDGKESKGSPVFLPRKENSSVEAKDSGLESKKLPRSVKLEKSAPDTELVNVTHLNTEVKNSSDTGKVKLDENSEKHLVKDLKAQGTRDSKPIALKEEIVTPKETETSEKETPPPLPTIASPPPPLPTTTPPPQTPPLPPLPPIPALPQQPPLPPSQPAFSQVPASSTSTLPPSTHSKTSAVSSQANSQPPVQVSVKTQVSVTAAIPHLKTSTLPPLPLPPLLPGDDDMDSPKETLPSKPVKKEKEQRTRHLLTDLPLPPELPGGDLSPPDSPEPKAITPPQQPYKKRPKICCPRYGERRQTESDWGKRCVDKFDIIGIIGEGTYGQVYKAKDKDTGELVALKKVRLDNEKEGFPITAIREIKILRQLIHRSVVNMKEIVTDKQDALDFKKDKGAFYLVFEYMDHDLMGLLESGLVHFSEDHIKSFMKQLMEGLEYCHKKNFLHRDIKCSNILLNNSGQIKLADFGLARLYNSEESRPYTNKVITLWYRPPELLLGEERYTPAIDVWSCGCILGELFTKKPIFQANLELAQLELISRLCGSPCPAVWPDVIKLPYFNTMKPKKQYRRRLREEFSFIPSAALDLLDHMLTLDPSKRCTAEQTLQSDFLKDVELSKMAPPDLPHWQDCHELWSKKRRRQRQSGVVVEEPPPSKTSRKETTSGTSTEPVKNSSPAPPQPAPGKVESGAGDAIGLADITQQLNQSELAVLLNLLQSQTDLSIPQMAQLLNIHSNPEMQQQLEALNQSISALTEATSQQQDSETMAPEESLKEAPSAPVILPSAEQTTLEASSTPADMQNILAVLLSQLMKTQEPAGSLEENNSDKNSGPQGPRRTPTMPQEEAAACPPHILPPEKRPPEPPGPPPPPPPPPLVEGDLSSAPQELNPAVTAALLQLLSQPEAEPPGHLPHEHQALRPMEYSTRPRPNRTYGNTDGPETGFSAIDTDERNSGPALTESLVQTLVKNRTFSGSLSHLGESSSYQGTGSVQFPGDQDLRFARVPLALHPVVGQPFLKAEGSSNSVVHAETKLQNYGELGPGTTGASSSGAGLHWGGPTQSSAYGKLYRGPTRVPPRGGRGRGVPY

[16] = Toxicity against male Sprague-Dawley rat assessed as decrease in lymphocytes content at 10 to 40 mg/kg, po administered once daily via gavage for 28 days and measured on day 29; format: organism-based; conditions: in vivo, 696 h, dose 10-40 mg/kg, time 29 day
Cytochrome P450 2D6 = Cytochrome P450 2D6 (Homo sapiens, UniProt P10635); experiment: Inhibition of CYP2D6 in human liver microsomes assessed as inhibition of dextromethorphan-O-demethylation incubated for 10 mins in presence of NADPH by LC-MS/MS analysis; format: ADME, Microsome
CDK7/Cyclin H/MNAT1 = CDK7/Cyclin H/MNAT1 (Homo sapiens, UniProt P50613); experiment: Inhibition of human recombinant N-terminal 6X His-tagged CDK7/CCNH/N-terminal 6X His-tagged MNAT1 expressed in HEP Sf9 cells using ATP as substrate measured after 60 mins by ADP-Glo reagent based luminescence assay
[17] = Toxicity against male Sprague-Dawley rat assessed as effect on hematocrit level at 10 to 40 mg/kg, po administered once daily via gavage for 28 days and measured on day 29; format: organism-based; conditions: in vivo, 696 h, dose 10-40 mg/kg, time 29 day
[18] = Toxicity against female Sprague-Dawley rat assessed as effect on red blood cells level at 7.5 to 30 mg/kg, po administered once daily via gavage for 28 days and measured on day 29; format: organism-based; conditions: in vivo, 696 h, dose 7.5-30 mg/kg, time 29 day
[19] = AUC(0 to t) in female Sprague-Dawley rat at 15 mg/kg, po administered via gavage and measured on day 1; format: ADME, organism-based; conditions: in vivo, 24 h, time 1 day
[20] = Toxicity against male Sprague-Dawley rat assessed as decrease in thymus volume at 10 to 40 mg/kg, po administered once daily via gavage for 28 days and measured on day 29; format: organism-based; conditions: in vivo, 696 h, dose 10-40 mg/kg, time 29 day
[21] = biological target: Cyclin-dependent kinase 12/13 (Homo sapiens) (UniProt Q14004+Q9NYV4); experiment: Inhibition of CDK12/13 in human SUM149PT cells assessed as reduction in level of phosphorylation of Ser2 on RNA Pol II CTD at 250 to 1000 nM by western blot analysis; format: cell-based; conditions: dose 250-1000 nM, time lower 1.0 hrs, time upper […]
[22] = biological target: CDK6/cyclin D1 (Homo sapiens) (UniProt P24385+Q00534); experiment: Inhibition of human recombinant N-terminal GST-tagged CDK6/N-terminal GST-tagged and C-terminal 6X His-tagged Cyclin D1 expressed in HEP Sf9 cells using ATP as substrate at 2 uM measured after 60 mins by ADP-Glo reagent based luminescence analysis
[23] = biological target: Cyclin-dependent kinase 13/Cyclin-K (Homo sapiens, UniProt Q14004); experiment: Inhibition of human recombinant N-terminal GST-tagged CDK13/N-terminal FLAG and C-terminal His-tagged Cyclin K expressed in HEP Sf9 cells using ATP as substrate measured after 60 mins by ADP-Glo reagent based luminescence assay
Cyclin-dependent kinase 13/Cyclin-K, sequence (Q14004 whole entry): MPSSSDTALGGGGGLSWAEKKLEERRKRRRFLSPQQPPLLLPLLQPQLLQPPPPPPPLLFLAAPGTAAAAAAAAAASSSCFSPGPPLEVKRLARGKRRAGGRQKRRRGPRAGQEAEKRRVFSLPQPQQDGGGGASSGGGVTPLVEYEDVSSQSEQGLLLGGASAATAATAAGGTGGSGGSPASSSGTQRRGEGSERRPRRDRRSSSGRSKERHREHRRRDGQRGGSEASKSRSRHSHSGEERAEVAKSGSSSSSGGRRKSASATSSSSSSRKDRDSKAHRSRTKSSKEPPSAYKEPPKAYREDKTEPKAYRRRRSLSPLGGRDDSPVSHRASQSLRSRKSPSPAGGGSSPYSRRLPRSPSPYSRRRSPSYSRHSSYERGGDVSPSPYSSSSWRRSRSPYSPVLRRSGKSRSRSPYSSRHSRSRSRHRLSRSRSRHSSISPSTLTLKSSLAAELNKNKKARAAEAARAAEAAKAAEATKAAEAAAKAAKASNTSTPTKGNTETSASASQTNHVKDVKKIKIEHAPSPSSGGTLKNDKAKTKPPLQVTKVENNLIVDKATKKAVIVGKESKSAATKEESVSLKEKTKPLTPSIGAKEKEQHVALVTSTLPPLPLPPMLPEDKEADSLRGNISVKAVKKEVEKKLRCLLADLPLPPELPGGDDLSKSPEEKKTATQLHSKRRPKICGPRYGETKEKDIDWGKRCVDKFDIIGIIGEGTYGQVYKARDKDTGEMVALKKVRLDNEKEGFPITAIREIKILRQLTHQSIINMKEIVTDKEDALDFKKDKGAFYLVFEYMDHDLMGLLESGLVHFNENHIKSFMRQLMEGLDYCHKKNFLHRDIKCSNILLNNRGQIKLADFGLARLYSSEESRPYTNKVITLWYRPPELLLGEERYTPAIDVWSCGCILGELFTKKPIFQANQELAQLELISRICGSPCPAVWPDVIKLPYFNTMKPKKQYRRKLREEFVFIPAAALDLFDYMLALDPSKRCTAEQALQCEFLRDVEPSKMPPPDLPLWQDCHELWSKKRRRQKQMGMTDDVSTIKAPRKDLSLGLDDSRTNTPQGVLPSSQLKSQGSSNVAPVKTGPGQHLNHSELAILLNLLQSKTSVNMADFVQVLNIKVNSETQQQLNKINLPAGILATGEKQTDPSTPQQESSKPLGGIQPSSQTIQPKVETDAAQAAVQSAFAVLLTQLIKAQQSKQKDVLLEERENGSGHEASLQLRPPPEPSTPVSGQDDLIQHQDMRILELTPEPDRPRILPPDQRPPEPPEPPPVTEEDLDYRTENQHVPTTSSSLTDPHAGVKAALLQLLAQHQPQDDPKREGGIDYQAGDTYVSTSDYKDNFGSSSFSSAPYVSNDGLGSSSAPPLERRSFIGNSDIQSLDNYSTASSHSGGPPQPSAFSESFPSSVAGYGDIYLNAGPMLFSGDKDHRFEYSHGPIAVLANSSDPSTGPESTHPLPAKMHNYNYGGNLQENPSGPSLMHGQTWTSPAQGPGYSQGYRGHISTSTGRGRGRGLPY
Cyclin-dependent kinase 13/Cyclin-K, sequence (O75909 whole entry, further chain): as the sequence (O75909 whole entry, looked up) above

HCT-116 [24] = experiment: Antiproliferative activity against PARG KO human HCT-116 cells assessed as reduction in cell viability incubated for 7 days by CellTiter-Glo reagent based luminescence analysis; format: functional; conditions: HCT-116, 168 h
[25] = Half life in female Sprague-Dawley rat at 15 mg/kg, po administered via gavage and measured on day 1; format: ADME, organism-based; conditions: in vivo, time 1 day
[26] = AUC(0 to t) in female Sprague-Dawley rat at 15 mg/kg, po administered once daily via gavage for 28 days; format: ADME, organism-based; conditions: in vivo, 672 h, time 28 day
[27] = Toxicity against female Sprague-Dawley rat assessed as decrease in thymus volume at 7.5 to 30 mg/kg, po administered once daily via gavage for 28 days and measured on day 29; format: organism-based; conditions: in vivo, 696 h, dose 7.5-30 mg/kg, time 29 day
[28] = Toxicity against female Sprague-Dawley rat assessed as effect on blood urea nitrogen level at 7.5 to 30 mg/kg, po administered once daily via gavage for 28 days and measured on day 29; format: organism-based; conditions: in vivo, 696 h, dose 7.5-30 mg/kg, time 29 day
[29] = Protein binding in mouse plasma assessed as free fraction at 400 uM incubated for 4 hrs by equilibrium dialysis method based LC-MS/MS analysis; format: ADME, cell-free

With `C=CC(=O)N1CCc2c(ncnc2N2CC[C@@H](Nc3ncc(Cl)c(OC)n3)C2)C1` the Activity [1] was “Toxic”, the Activity [2] was “Non-toxic” and the Activity [3] was “Non-toxic”. The inhibition [4] was 68%, the Cmax [5] was 1900 ng/mL and the half-life [6] was 1.81 h. The IC50 (HCT-116 [7]) was 128 nM, the Vd [8] was 0.87 L/kg and the Activity [9] was “Toxic”. For the same compound, the IC50 (SW1417) was 137 nM, the IC50 (CDK9/cyclin T1) was 641 nM and the Activity [10] was “Non-toxic”. For the same compound, the Cmax [11] was 1350 ng/mL, the clearance [12] was 62.4 mL/min/kg and the Vd [13] was 0.72 L/kg. For the same compound, the Activity [14] was “Non-toxic”, the Activity [15] was “Active” and the Activity [16] was “Toxic”. For the same compound, the IC50 (Cytochrome P450 2D6) was > 50000 nM, the IC50 (CDK7/Cyclin H/MNAT1) was 204 nM and the Activity [17] was “Non-toxic”. The Activity [18] was “Non-toxic”, the AUCt [19] was 3000 ng·h/mL and the Activity [20] was “Toxic”. The inhibition [21] was “Time-dependent-effect”, the inhibition [22] was 56% and the IC50 [23] was 111 nM. For the same compound, the IC50 (HCT-116 [24]) was 123 nM, the half-life [25] was 3.7 h and the AUCt [26] was 3220 ng·h/mL. The Activity [27] was “Toxic”, the Activity [28] was “Non-toxic” and the fraction unbound at 4 h, 400 µM [29] was 0.075.
